Data on 1 substance can be found in patent publication US20130089601A1, “METHOD FOR TREATING ATHEROSCLEROSIS” (KAOHSIUNG MEDICAL UNIVERSITY, priority 2009, published 2013).

Common to all, as to format: cell-based, human
Data set [1] relates to vascular smooth muscle cells (VSMC). Briefly: WST-1 cell proliferation assay of VSMC stimulated with ox-LDL. To be noted: ox-LDL 40 μg/ml, 24 hours. The protocol: The experiments were conducted in the primary aortic smooth muscle cells (purchased as cryopreserved tertiary cultures from Cascade Biologics, OR, USA) at passages 4 to 8. The VSMC cells were maintained in an M231 culture medium supplemented with fetal bovine serum (FBS, 5%), human epidermal growth factor (10 ng/ml), human basic fibroblast growth factor (3 ng/ml), insulin ([…]), penicillin (100 units/ml), streptomycin ([…]), and Fungizone ([…]). The cultures were kept at a temperature of 37° C. in an atmosphere of 5% CO2 in air.
The transfection was performed using a siPort NeoFx reagent (Ambion) and VSMC cell proliferation and migration were evaluated 24 hours after the microRNA-195 transfection. In addition, simvastatin was used, a widely used lipid lowering drug and anti-atherosclerosis drug, to test the influence of microRNA-195 levels by simvastatin.
VSMC is an established model for atherosclerosis studies and when atherosclerosis incursion VSMC proliferation increases. A VSMC proliferation rate was used as a surrogate for the development of atherosclerosis, which was assessed by WST-1. By using a 1-3 μL siPort NeoFx (Ambion) reagent, 0-120 nM of microRNA-195 (Pre-miR™ miRNA, hsa-miR-195 (product ID PM10827), Ambion Inc.) was transfected into the VSMC cells while they were incubated with ox-LDL (40 μg/ml) for 24 hours. […] The microplates were then read by a spectrophotometer by measuring the absorbance of a dye with a wavelength of 450 nm and a reference wavelength of 600 nm (Benchmark PLUS Microplate Spectrophotometer, Bio-Rad) and plotted. […]
Cell proliferation of the VSMC was evaluated following incubation in ox-LDL (40 μg/ml) for 24 hours in the presence of microRNA-195 (Pre-miR miRNA, hsa-miR-195 (product ID PM10827), Ambion Inc.) (100 nM), simvastatin (1 nM) or Panax Notoginseng (in a form of water extract with concentration of 1 mg/ml; Chuang Song Zong Pharmaceutical co. Ltd), or in the presence of microRNA-195 (100 nM) with simvastatin (1 nM) or with Panax Notoginseng (in a form of water extract with concentration of 1 mg/ml). […]

For data set [2], the system named is VSMC cells. In words: Chemotactic migration of VSMC (Transwell). The conditions noted are these: 100 nM for 24 hours, ox-LDL 40 μg/ml. The protocol: Chemotactic migration is another characteristic of atherosclerosis and can be used as another line of evidence of atherosclerotic change for the cultured VSMC cells. This experiment was assayed by using a microchemotactic chamber and polycarbonate filters with pores of […] in diameter (Transwell, Millipore). After incubated with microRNA-195 (Pre-miR miRNA, hsa-miR-195 (product ID PM10827), Ambion Inc.) (100 nM) or an inhibitor (100 nM) for 24 hours, the VSMC cells were trypsinized and suspended with a serum free medium. A volume (300 μl) of a 1×10^4 cell suspension was placed in the upper chamber, the medium containing ox-LDL (40 μg/ml, each) was placed in the lower and upper chamber. The cell suspension was incubated at a temperature of 37° C. under 5% CO2 in air for 24 hours. After incubation, the VSMC cells on the upper side of the filter were scraped off, and the cells that had directly migrated to the lower side of the filter were trypsinized. The cells were fixed with methanol and stained with a Giemsa solution (Merck). Quantification of chemotactic migration was performed using the hemocytometer.

The subject of data set [3] is MCP-1. In words: MCP-1 secreted from VSMC, sandwich enzyme immunoassay. The protocol:
Monocyte chemotactic protein-1 (MCP-1) is a well established atherosclerotic biomarker and it was examined to further test for the influence of microRNA-195 on the atherogenic biomarker. VSMC cells in six-well plates were grown to confluence and then cultivated in a serum-free medium for 24 hours before the experiment. After transfection of microRNA-195 for 24 hours, the cells were further incubated with ox-LDL and simvastatin for another 24 hours. The supernatants of the conditioned medium were collected and frozen at −70° C. The culture supernatants were analyzed to determine the MCP-1 using Sandwich Enzyme Immunoassay kits (BD Biosciences) according to the manufacturer protocol.

Data set [4] has as its system VCAM-1. Briefly: Real-time qPCR of VCAM-1 mRNA in HUVECs co-cultured with transfected HASMCs. To be noted: co-cultured with microRNA-195-transfected HASMCs. The protocol: HASMCs were transfected with negative control microRNA or microRNA-195 with or without the presence of oxLDL. MicroRNA-195-transfected HASMCs were co-cultured with HUVEC. Real-time qPCR analysis of mRNA levels for genes surrogating endothelial functions as well as atherosclerosis, such as vascular cell adhesion molecule-1 (VCAM-1), […] (TNF-a) and interleukin-6 (IL-6), and vasodilation gene, endothelial nitric oxide synthase (eNOS), were determined in HUVECs.

For “microRNA-195: Pre-miR miRNA, hsa-miR-195 (product ID PM10827), Ambion Inc., which mimics precursor for mature human miR-195; mimic 5′-UAGCAGCACAGAAAUAUUGGC-3′ (SEQ ID NO: 5) (chemistry not given here)”, the “reduction of VSMC cell proliferation” value stood at 21% in data set [1] (30 nM transfected), 29% in data set [1] (60 nM transfected) and 45% in data set [1] (120 nM transfected). Also, in data set [2], the “chemotactic migration, percentage of migrated cells compared to control medium cells” value was 137.6%. Further, in data set [3] (ox-LDL stimulation), the “effect on reducing the atherogenic biomarker (MCP-1) compared with simvastatin” value was “stronger effect”. Further, the MCP-1 levels result in data set [3] (transfection 24 hours then ox-LDL 24 hours, culture supernatant) is on record as “significantly decrease”. Further, the “VCAM-1 mRNA level in HUVECs” value in data set [4] was “suppresses”.
